Measured values published in patent US9693556B2, “Herbicidal pyridazinone derivatives” (SYNGENTA LIMITED, priority 2011, dated 2017).

Columns and labels:
Assay type in all cases: in vivo
[1] = test system: Echinochloa crus-galli (ECHCG); experiment: Pre-emergence herbicidal glasshouse test on Echinochloa crus-galli; conditions: pre-emergence; 1000 g/h; evaluated after 13 days
Method in brief: (§1)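 Application rate 1000 g/h, formulated in acetone/water (50:50) with 0.5% Tween 20 and sprayed onto pots sown 1 day (pre-emergence) or 8 days (post-emergence) earlier. Evaluation at 13 days rated damage from 1 (0-19%) to 5 (80-100%).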

[2] = test system: Setaria faberi (SETFA); experiment: Post-emergence herbicidal glasshouse test on Setaria faberi; conditions: post-emergence; 1000 g/h; evaluated after 13 days
Method in brief: as §1

[3] = test system: Amaranthus retoflexus (AMARE); experiment: Pre-emergence herbicidal glasshouse test on Amaranthus retoflexus; conditions: pre-emergence; 1000 g/h; evaluated after 13 days
Method in brief: as §1

[4] = test system: Solanum nigrum (SOLNI); experiment: Pre-emergence herbicidal glasshouse test on Solanum nigrum; conditions: pre-emergence; 1000 g/h; evaluated after 13 days
Method in brief: as §1

[5] = test system: Setaria faberi (SETFA); experiment: Pre-emergence herbicidal glasshouse test on Setaria faberi; conditions: pre-emergence; 1000 g/h; evaluated after 13 days
Method in brief: as §1

[6] = test system: Alopecurus myosuroides (ALOMY); experiment: Post-emergence herbicidal glasshouse test on Alopecurus myosuroides; conditions: post-emergence; 1000 g/h; evaluated after 13 days
Method in brief: as §1

[7] = test system: Echinochloa crus-galli (ECHCG); experiment: Post-emergence herbicidal glasshouse test on Echinochloa crus-galli; conditions: post-emergence; 1000 g/h; evaluated after 13 days
Method in brief: as §1

[8] = test system: Amaranthus retoflexus (AMARE); experiment: Post-emergence herbicidal glasshouse test on Amaranthus retoflexus; conditions: post-emergence; 1000 g/h; evaluated after 13 days
Method in brief: as §1

[9] = test system: Ipomoea hederacea (IPOHE); experiment: Post-emergence herbicidal glasshouse test on Ipomoea hederacea; conditions: post-emergence; 1000 g/h; evaluated after 13 days
Method in brief: as §1

[10] = test system: Ipomoea hederacea (IPOHE); experiment: Pre-emergence herbicidal glasshouse test on Ipomoea hederacea; conditions: pre-emergence; 1000 g/h; evaluated after 13 days
Method in brief: as §1

[11] = test system: Alopecurus myosuroides (ALOMY); experiment: Pre-emergence herbicidal glasshouse test on Alopecurus myosuroides; conditions: pre-emergence; 1000 g/h; evaluated after 13 days
Method in brief: as §1

[12] = test system: Solanum nigrum (SOLNI); experiment: Post-emergence herbicidal glasshouse test on Solanum nigrum; conditions: post-emergence; 1000 g/h; evaluated after 13 days
Method in brief: as §1

Row | SMILES | PRE Application ECHCG herbicidal damage (five point scale) [1] | POST Application SETFA herbicidal damage (five point scale) [2] | PRE Application AMARE herbicidal damage (five point scale) [3] | PRE Application SOLNI herbicidal damage (five point scale) [4] | PRE Application SETFA herbicidal damage (five point scale) [5] | POST Application ALOMY herbicidal damage (five point scale) [6] | POST Application ECHCG herbicidal damage (five point scale) [7] | POST Application AMARE herbicidal damage (five point scale) [8] | POST Application IPOHE herbicidal damage (five point scale) [9] | PRE Application IPOHE herbicidal damage (five point scale) [10] | PRE Application ALOMY herbicidal damage (five point scale) [11] | POST Application SOLNI herbicidal damage (five point scale) [12]
1 | Cn1ncc(-c2ccc(C(F)(F)F)nc2N2CCOCC2)c(O)c1=O [Compound 1.075] | 5 (5=80-100% damage) | 2 (2=20-39% damage) | 5 (5=80-100% damage) | 5 (5=80-100% damage) | 1 (1=0-19% damage) | 3 (3=40-59% damage) | 5 (5=80-100% damage) | 5 (5=80-100% damage) | 5 (5=80-100% damage) | 2 (2=20-39% damage) | 1 (1=0-19% damage) | 5 (5=80-100% damage)
2 | Cn1ncc(-c2ccc(C(F)(F)F)cc2Cl)c(O)c1=O [Compound 1.076] | 1 (1=0-19% damage) | 1 (1=0-19% damage) | 5 (5=80-100% damage) | 2 (2=20-39% damage) | 1 (1=0-19% damage) | 2 (2=20-39% damage) | 2 (2=20-39% damage) | 5 (5=80-100% damage) | 4 (4=60-79% damage) | 1 (1=0-19% damage) | 1 (1=0-19% damage) | 4 (4=60-79% damage)
3 | Cn1ncc(-c2ccc(Cl)cc2Cl)c(O)c1=O [Compound 1.077] | 1 (1=0-19% damage) | 1 (1=0-19% damage) | 3 (3=40-59% damage) | 3 (3=40-59% damage) | 1 (1=0-19% damage) | 1 (1=0-19% damage) | 1 (1=0-19% damage) | 4 (4=60-79% damage) | 2 (2=20-39% damage) | 1 (1=0-19% damage) | 1 (1=0-19% damage) | 2 (2=20-39% damage)
4 | Cn1ncc(-n2ccc(C(F)(F)F)cc2=O)c(O)c1=O [Compound 1.078] | 5 (5=80-100% damage) | 5 (5=80-100% damage) | 5 (5=80-100% damage) | 5 (5=80-100% damage) | 5 (5=80-100% damage) | 1 (1=0-19% damage) | 5 (5=80-100% damage) | 5 (5=80-100% damage) | 4 (4=60-79% damage) | 2 (2=20-39% damage) | 2 (2=20-39% damage) | 5 (5=80-100% damage)
5 | Cn1ncc(-c2ccc(Br)cc2S(C)(=O)=O)c(O)c1=O [Compound 1.081] | 5 (5=80-100% damage) | 5 (5=80-100% damage) | 5 (5=80-100% damage) | 5 (5=80-100% damage) | 5 (5=80-100% damage) | 5 (5=80-100% damage) | 5 (5=80-100% damage) | 5 (5=80-100% damage) | 5 (5=80-100% damage) | 2 (2=20-39% damage) | 5 (5=80-100% damage) | 5 (5=80-100% damage)
6 | Cc1cc(Cl)ccc1-c1cnn(C)c(=O)c1O [Compound 1.082] | 1 (1=0-19% damage) | 1 (1=0-19% damage) | 1 (1=0-19% damage) | 1 (1=0-19% damage) | 1 (1=0-19% damage) | 1 (1=0-19% damage) | 1 (1=0-19% damage) | 2 (2=20-39% damage) | 2 (2=20-39% damage) | 1 (1=0-19% damage) | 1 (1=0-19% damage) | 4 (4=60-79% damage)
7 | Cc1cc(C#N)ccc1-c1cnn(C)c(=O)c1O [Compound 1.084] | 1 (1=0-19% damage) | 2 (2=20-39% damage) | 1 (1=0-19% damage) | 1 (1=0-19% damage) | 1 (1=0-19% damage) | 1 (1=0-19% damage) | 3 (3=40-59% damage) | 4 (4=60-79% damage) | 4 (4=60-79% damage) | 1 (1=0-19% damage) | 1 (1=0-19% damage) | 4 (4=60-79% damage)
8 | Cn1ncc(-c2cc(F)ccc2Cl)c(O)c1=O [Compound 1.086] | 1 (1=0-19% damage) | 1 (1=0-19% damage) | 1 (1=0-19% damage) | 1 (1=0-19% damage) | 1 (1=0-19% damage) | 1 (1=0-19% damage) | 1 (1=0-19% damage) | 1 (1=0-19% damage) | 1 (1=0-19% damage) | 1 (1=0-19% damage) | 1 (1=0-19% damage) | 1 (1=0-19% damage)
9 | Cn1ncc(-c2cc(Cl)c(Cl)cc2Cl)c(O)c1=O [Compound 1.089] | 1 (1=0-19% damage) | 1 (1=0-19% damage) | 1 (1=0-19% damage) | 1 (1=0-19% damage) | 1 (1=0-19% damage) | 1 (1=0-19% damage) | 1 (1=0-19% damage) | 1 (1=0-19% damage) | 1 (1=0-19% damage) | 1 (1=0-19% damage) | 1 (1=0-19% damage) | 1 (1=0-19% damage)
